# Paper PMC5218480 (PLoS ONE, 2017)
# Tested on: MV-4-11 cells
# Assay: Gene expression microarray analysis (Affymetrix PrimeView) and GSEA
# Type: cell-based, human
# Parameters: RFU PODN (11730768_x_at) / Fold change /veh PODN (11730768_x_at) / RFU LINC00158 (11744669_a_at) / Fold change /veh LINC00158 (11744669_a_at) / RFU DUSP10 (11751237_a_at) / Fold change /veh DUSP10 (11751237_a_at) / RFU ID3 (11757404_x_at) / Fold change /veh ID3 (11757404_x_at) / RFU PLEKHG5 (11737974_s_at) / Fold change /veh PLEKHG5 (11737974_s_at) / RFU LRRC4B (11730491_at) / Fold change /veh LRRC4B (11730491_at) / RFU GIMAP4 (11747438_a_at) / Fold change /veh GIMAP4 (11747438_a_at) / RFU KRT8 (11758183_x_at) / Fold change /veh KRT8 (11758183_x_at) / RFU CNN1 (11734310_a_at) / Fold change /veh CNN1 (11734310_a_at) / RFU VPS37D (11726825_at) / Fold change /veh VPS37D (11726825_at) / RFU C10orf10 (11716522_x_at) / Fold change /veh C10orf10 (11716522_x_at) / RFU KIR2DL2 /// KIR2DL4 /// KIR2DL5A /// KIR2DL5B /// KIR2DS1 /// KIR2DS2 /// KIR2DS3 /// KIR2DS4 /// KIR3DL3 /// KIR3DL3 /// KIR3DS1 (11738374_at) / Fold change /veh KIR2DL2 /// KIR2DL4 /// KIR2DL5A /// KIR2DL5B /// KIR2DS1 /// KIR2DS2 /// KIR2DS3 /// KIR2DS4 /// KIR3DL3 /// KIR3DL3 /// KIR3DS1 (11738374_at) / RFU C1QL1 (11718748_at) / Fold change /veh C1QL1 (11718748_at) / RFU TMPRSS4 (11747572_a_at) / Fold change /veh TMPRSS4 (11747572_a_at) / RFU HAMP (11756126_x_at) / Fold change /veh HAMP (11756126_x_at) / RFU RNFT2 (11725882_a_at) / Fold change /veh RNFT2 (11725882_a_at) / RFU NR4A2 (11747474_a_at) / Fold change /veh NR4A2 (11747474_a_at) / RFU ABCC12 (11746883_a_at) / Fold change /veh ABCC12 (11746883_a_at) / RFU TMEM136 (11760407_x_at) / Fold change /veh TMEM136 (11760407_x_at) / RFU CLDN22 /// WWC2 (11732394_at) / Fold change /veh CLDN22 /// WWC2 (11732394_at) / RFU HLA-DPB1 (11760878_x_at) / Fold change /veh HLA-DPB1 (11760878_x_at) / RFU SPINT1 (11716480_a_at) / Fold change /veh SPINT1 (11716480_a_at) / RFU GAP43 (11754022_s_at) / Fold change /veh GAP43 (11754022_s_at) / RFU A4GNT (11735810_at) / Fold change /veh A4GNT (11735810_at) / RFU PRB3 (11715151_x_at) / Fold change /veh PRB3 (11715151_x_at) / RFU TUBB4B (11761932_at) / Fold change /veh TUBB4B (11761932_at) / RFU CAPN14 (11732068_a_at) / Fold change /veh CAPN14 (11732068_a_at) / RFU TMCC2 (11721928_a_at) / Fold change /veh TMCC2 (11721928_a_at) / RFU IRGQ (11745062_a_at) / Fold change /veh IRGQ (11745062_a_at) / RFU FAM174B (11720279_a_at) / Fold change /veh FAM174B (11720279_a_at) / RFU TMPRSS4 (11748680_a_at) / Fold change /veh TMPRSS4 (11748680_a_at) / RFU FAM212B (11763350_a_at) / Fold change /veh FAM212B (11763350_a_at) / RFU PLEKHG5 (11743358_a_at) / Fold change /veh PLEKHG5 (11743358_a_at) / RFU ZSCAN30 (11745921_a_at) / Fold change /veh ZSCAN30 (11745921_a_at) / RFU CMKLR1 (11741424_a_at) / Fold change /veh CMKLR1 (11741424_a_at) / RFU LOC101060620 /// MAPK8IP1 (11723275_at) / Fold change /veh LOC101060620 /// MAPK8IP1 (11723275_at) / RFU SPTSSB (11747773_x_at) / Fold change /veh SPTSSB (11747773_x_at) / RFU PRSS12 (11739890_at) / Fold change /veh PRSS12 (11739890_at) / RFU BIN1 (11741810_x_at) / Fold change /veh BIN1 (11741810_x_at) / RFU WNT11 (11732464_a_at) / Fold change /veh WNT11 (11732464_a_at) / RFU C10orf10 (11716521_a_at) / Fold change /veh C10orf10 (11716521_a_at) / RFU C5orf56 (11738089_at) / Fold change /veh C5orf56 (11738089_at) / RFU CYB561 (11721691_x_at) / Fold change /veh CYB561 (11721691_x_at) / RFU ANKRD19P (11752326_a_at) / Fold change /veh ANKRD19P (11752326_a_at) / RFU OR2T12 /// OR2T33 /// OR2T8 (11738714_s_at) / Fold change /veh OR2T12 /// OR2T33 /// OR2T8 (11738714_s_at) / RFU VCAN (11748164_a_at) / Fold change /veh VCAN (11748164_a_at) / RFU JSRP1 (11732532_at) / Fold change /veh JSRP1 (11732532_at) / RFU KRTAP10-11 (11738290_x_at) / Fold change /veh KRTAP10-11 (11738290_x_at) / RFU MYO3A (11730013_a_at) / Fold change /veh MYO3A (11730013_a_at) / RFU EBF3 (11725865_a_at) / Fold change /veh EBF3 (11725865_a_at) / RFU CAMK2N1 (11719241_x_at) / Fold change /veh CAMK2N1 (11719241_x_at) / RFU C5orf56 (11738088_a_at) / Fold change /veh C5orf56 (11738088_a_at) / RFU OLFML3 (11715873_a_at) / Fold change /veh OLFML3 (11715873_a_at) / RFU LOC100653217 /// NTM (11731650_a_at) / Fold change /veh LOC100653217 /// NTM (11731650_a_at) / RFU MAPK11 (11762145_a_at) / Fold change /veh MAPK11 (11762145_a_at) / RFU FIZ1 (11724087_x_at) / Fold change /veh FIZ1 (11724087_x_at) / RFU OASL (11726364_x_at) / Fold change /veh OASL (11726364_x_at) / RFU SOX15 (11748057_x_at) / Fold change /veh SOX15 (11748057_x_at) / RFU CD79A (11719716_a_at) / Fold change /veh CD79A (11719716_a_at) / RFU HIST1H1D (11736915_at) / Fold change /veh HIST1H1D (11736915_at) / RFU CASKIN2 (11723855_a_at) / Fold change /veh CASKIN2 (11723855_a_at) / RFU LOC730098 (11760151_x_at) / Fold change /veh LOC730098 (11760151_x_at) / RFU OR4N2 (11742367_at) / Fold change /veh OR4N2 (11742367_at) / RFU PRRT2 (11749266_a_at) / Fold change /veh PRRT2 (11749266_a_at) / RFU SNX32 (11753110_a_at) / Fold change /veh SNX32 (11753110_a_at) / RFU CDHR5 (11726645_a_at) / Fold change /veh CDHR5 (11726645_a_at) / RFU RCAN1 (11760418_a_at) / Fold change /veh RCAN1 (11760418_a_at) / RFU FAM167A (11723789_a_at) / Fold change /veh FAM167A (11723789_a_at) / RFU FAM26E (11764081_at) / Fold change /veh FAM26E (11764081_at) / RFU ISYNA1 (11749810_s_at) / Fold change /veh ISYNA1 (11749810_s_at) / RFU ACY1 (11761880_at) / Fold change /veh ACY1 (11761880_at) / RFU 11764098_at / Fold change /veh 11764098_at / RFU SAMD14 (11745864_x_at) / Fold change /veh SAMD14 (11745864_x_at) / RFU NPB (11741838_a_at) / Fold change /veh NPB (11741838_a_at) / RFU TMPRSS6 (11731388_a_at) / Fold change /veh TMPRSS6 (11731388_a_at) / RFU KRTAP10-2 (11738614_at) / Fold change /veh KRTAP10-2 (11738614_at) / RFU ARHGAP8 /// PRR5-ARHGAP8 (11727945_x_at) / Fold change /veh ARHGAP8 /// PRR5-ARHGAP8 (11727945_x_at) / RFU KRTAP5-7 /// NADSYN1 (11734609_at) / Fold change /veh KRTAP5-7 /// NADSYN1 (11734609_at) / RFU RASL12 (11751679_a_at) / Fold change /veh RASL12 (11751679_a_at) / RFU CDKN2B (11736163_a_at) / Fold change /veh CDKN2B (11736163_a_at) / RFU PRF1 (11729649_at) / Fold change /veh PRF1 (11729649_at) / RFU, ZNF638 /// ZNF638-IT1 / Fold change vs veh, ZNF638 /// ZNF638-IT1 / RFU, PANK3 / Fold change vs veh, PANK3 / RFU, SH3YL1 / Fold change vs veh, SH3YL1 / RFU, ZEB2 / Fold change vs veh, ZEB2 / RFU, NRIP1 / Fold change vs veh, NRIP1 / RFU, PTTG1IP / Fold change vs veh, PTTG1IP / RFU, CAPN2 / Fold change vs veh, CAPN2 / RFU, MED14 / Fold change vs veh, MED14 / RFU, SNORA58 / Fold change vs veh, SNORA58 / RFU, C1orf63 / Fold change vs veh, C1orf63 / RFU, LRRFIP1 / Fold change vs veh, LRRFIP1 / RFU, NDUFAF7 / Fold change vs veh, NDUFAF7 / RFU, SLC12A2 / Fold change vs veh, SLC12A2 / RFU, IBTK / Fold change vs veh, IBTK / RFU, ESF1 / Fold change vs veh, ESF1 / Fold change vs veh, TMEM50B / RFU, TAOK1 / Fold change vs veh, TAOK1 / RFU, ACBD3 / Fold change vs veh, ACBD3 / RFU, TMA16 / Fold change vs veh, TMA16 / RFU, RWDD3 / Fold change vs veh, RWDD3 / RFU, BCAT1 / Fold change vs veh, BCAT1 / RFU, EDEM3 / Fold change vs veh, EDEM3 / RFU, TMEM33 / Fold change vs veh, TMEM33 / RFU, WDR75 / Fold change vs veh, WDR75 / RFU, AHCTF1 / Fold change vs veh, AHCTF1 / RFU, TFRC / Fold change vs veh, TFRC / RFU, ZDHHC17 / Fold change vs veh, ZDHHC17 / RFU, NOM1 / Fold change vs veh, NOM1 / RFU, ARL8B / Fold change vs veh, ARL8B / RFU, ZBTB11 / Fold change vs veh, ZBTB11 / RFU, TAMM41 / Fold change vs veh, TAMM41 / RFU, KIAA1704 /// LOC100996395 / Fold change vs veh, KIAA1704 /// LOC100996395 / RFU, ING1 / Fold change vs veh, ING1 / RFU, TRMT61B / Fold change vs veh, TRMT61B / RFU, FUBP3 / Fold change vs veh, FUBP3 / RFU, TP53 / Fold change vs veh, TP53 / RFU, TNKS2 / Fold change vs veh, TNKS2 / RFU, ZFP14 / Fold change vs veh, ZFP14 / RFU, ACTR2 / Fold change vs veh, ACTR2 / RFU, PPP3R1 / Fold change vs veh, PPP3R1 / RFU, PIK3R1 / Fold change vs veh, PIK3R1 / RFU, HNRNPA1 / Fold change vs veh, HNRNPA1 / RFU, RNF170 / Fold change vs veh, RNF170 / RFU, ZNF28 / Fold change vs veh, ZNF28 / RFU, RNGTT / Fold change vs veh, RNGTT / RFU, OGT / Fold change vs veh, OGT / RFU, BRD1 / Fold change vs veh, BRD1 / RFU, MARS / Fold change vs veh, MARS / RFU, ZNF655 / Fold change vs veh, ZNF655 / RFU, FAHD1 / Fold change vs veh, FAHD1 / RFU, BDP1 / Fold change vs veh, BDP1 / RFU, LRRCC1 / Fold change vs veh, LRRCC1 / RFU, ARID1A / Fold change vs veh, ARID1A / RFU, ZNF146 / Fold change vs veh, ZNF146 / RFU, ZNF330 / Fold change vs veh, ZNF330 / RFU, GPN3 / Fold change vs veh, GPN3 / RFU, C9orf123 / Fold change vs veh, C9orf123 / RFU, N4BP2L2 / Fold change vs veh, N4BP2L2 / RFU, ARFIP1 / Fold change vs veh, ARFIP1 / RFU, FAM179B / Fold change vs veh, FAM179B / RFU, BCL10 / Fold change vs veh, BCL10 / RFU, UHRF1BP1L / Fold change vs veh, UHRF1BP1L / RFU, BET1 / Fold change vs veh, BET1 / RFU, CNOT2 / Fold change vs veh, CNOT2 / RFU, ZNF268 / Fold change vs veh, ZNF268 / Fold change vs veh, ZNF507 / RFU, DGCR2 / Fold change vs veh, DGCR2 / RFU, WDSUB1 / Fold change vs veh, WDSUB1 / Fold change vs veh, HSP90B1 /// MIR3652 / RFU, ADSS / Fold change vs veh, ADSS / RFU, GK / Fold change vs veh, GK / RFU, ZNF148 / Fold change vs veh, ZNF148 / RFU, TAF9 / Fold change vs veh, TAF9 / RFU, SLC1A5 / Fold change vs veh, SLC1A5 / RFU, SLMO2 / Fold change vs veh, SLMO2 / RFU, ABCC4 / Fold change vs veh, ABCC4 / RFU, LOC101060439 /// RAP1B / Fold change vs veh, LOC101060439 /// RAP1B / RFU, RFX7 / Fold change vs veh, RFX7 / RFU, GTPBP10 / Fold change vs veh, GTPBP10 / RFU, CNEP1R1 / Fold change vs veh, CNEP1R1 / RFU, BIVM-ERCC5 /// ERCC5 / Fold change vs veh, BIVM-ERCC5 /// ERCC5 / RFU, ILF3 / Fold change vs veh, ILF3 / RFU 11762660_at / Fold change /veh 11762660_at / RFU VCAN (11757783_s_at) / Fold change /veh VCAN (11757783_s_at) / RFU DDX43 (11728927_at) / Fold change /veh DDX43 (11728927_at) / RFU KRT8 (11758188_x_at) / Fold change /veh KRT8 (11758188_x_at) / RFU NKD1 (11759106_at) / Fold change /veh NKD1 (11759106_at) / RFU SRD5A1 (11742802_a_at) / Fold change /veh SRD5A1 (11742802_a_at) / RFU TPSAB1 /// TPSB2 (11721975_s_at) / Fold change /veh TPSAB1 /// TPSB2 (11721975_s_at) / RFU GSTM3 (11746129_a_at) / Fold change /veh GSTM3 (11746129_a_at) / RFU IL23R (11737362_x_at) / Fold change /veh IL23R (11737362_x_at) / RFU TMEM51 (11727254_a_at) / Fold change /veh TMEM51 (11727254_a_at) / RFU PIWIL2 (11732686_x_at) / Fold change /veh PIWIL2 (11732686_x_at) / RFU ORM1 (11744905_x_at) / Fold change /veh ORM1 (11744905_x_at) / RFU CCDC152 (11743942_at) / Fold change /veh CCDC152 (11743942_at) / RFU ECM1 (11717891_a_at) / Fold change /veh ECM1 (11717891_a_at) / RFU IL23R (11748794_a_at) / Fold change /veh IL23R (11748794_a_at) / RFU TNFAIP8L3 (11732012_x_at) / Fold change /veh TNFAIP8L3 (11732012_x_at) / RFU MBOAT4 (11741988_at) / Fold change /veh MBOAT4 (11741988_at) / RFU 11764193_at / Fold change /veh 11764193_at / RFU TMEM53 (11763286_at) / Fold change /veh TMEM53 (11763286_at) / RFU MAGEB2 (11727129_at) / Fold change /veh MAGEB2 (11727129_at) / RFU TMEM200A (11744735_a_at) / Fold change /veh TMEM200A (11744735_a_at) / RFU CCDC152 (11751479_a_at) / Fold change /veh CCDC152 (11751479_a_at) / RFU FAM211A (11726209_a_at) / Fold change /veh FAM211A (11726209_a_at) / RFU RGS16 (11746705_a_at) / Fold change /veh RGS16 (11746705_a_at) / RFU VCAN (11755009_s_at) / Fold change /veh VCAN (11755009_s_at) / RFU RHOB (11743442_s_at) / Fold change /veh RHOB (11743442_s_at) / RFU RGS16 (11720943_a_at) / Fold change /veh RGS16 (11720943_a_at) / RFU RGS16 (11720944_at) / Fold change /veh RGS16 (11720944_at) / RFU, VPS4B / Fold change vs veh, VPS4B / RFU, CREB1 / Fold change vs veh, CREB1 / RFU, DNAJC13 / Fold change vs veh, DNAJC13 / RFU, GNAQ / Fold change vs veh, GNAQ / RFU, CDK5R1 / Fold change vs veh, CDK5R1 / RFU, ZRANB3 / Fold change vs veh, ZRANB3 / RFU, CUL4A / Fold change vs veh, CUL4A / RFU, CCNY / Fold change vs veh, CCNY / RFU, UFL1 / Fold change vs veh, UFL1 / RFU, COG3 / Fold change vs veh, COG3 / RFU, DIAPH2 / Fold change vs veh, DIAPH2 / RFU, SKA2 / Fold change vs veh, SKA2 / RFU, AFF3 / Fold change vs veh, AFF3 / RFU, LMF1 / Fold change vs veh, LMF1 / RFU, IPO11 / Fold change vs veh, IPO11 / RFU, DFFB / Fold change vs veh, DFFB / RFU, FOXP1 / Fold change vs veh, FOXP1 / RFU, CARD8 / Fold change vs veh, CARD8 / RFU, STRN3 / Fold change vs veh, STRN3 / RFU, ADK / Fold change vs veh, ADK / RFU, RASSF2 / Fold change vs veh, RASSF2 / RFU, WIPF1 / Fold change vs veh, WIPF1 / RFU, LARP1B / Fold change vs veh, LARP1B / RFU, RASA1 / Fold change vs veh, RASA1 / RFU, RB1 / Fold change vs veh, RB1 / RFU, PPFIA1 / Fold change vs veh, PPFIA1 / RFU, MAT2A / Fold change vs veh, MAT2A / RFU, CCT5 / Fold change vs veh, CCT5 / RFU, WDR92 / Fold change vs veh, WDR92 / RFU, CUX1 / Fold change vs veh, CUX1 / RFU, TTC7A / Fold change vs veh, TTC7A / RFU, TMEM135 / Fold change vs veh, TMEM135 / RFU, DEPTOR / Fold change vs veh, DEPTOR / RFU, CPM / Fold change vs veh, CPM / RFU, DNAJB6 / Fold change vs veh, DNAJB6 / RFU, CACNA2D3 / Fold change vs veh, CACNA2D3 / RFU, DTX4 / Fold change vs veh, DTX4 / RFU, TFCP2 / Fold change vs veh, TFCP2 / RFU, GMCL1 /// GMCL1P1 / Fold change vs veh, GMCL1 /// GMCL1P1 / RFU, AEBP2 / Fold change vs veh, AEBP2 / RFU, SNHG1 /// SNORD22 /// SNORD25 /// SNORD26 /// SNORD27 /// SNORD28 /// SNORD29 /// SNORD31 / Fold change vs veh, SNHG1 /// SNORD22 /// SNORD25 /// SNORD26 /// SNORD27 /// SNORD28 /// SNORD29 /// SNORD31 / Fold change (Aza/veh), C12orf56 (ProbeSet 11735607_a_at) / Fold change (ACY-1035/veh), C12orf56 (ProbeSet 11735607_a_at) / Fold change (Aza/veh), FGFR1OP (ProbeSet 11751329_s_at) / Fold change (ACY-1035/veh), FGFR1OP (ProbeSet 11751329_s_at) / Fold change (Aza/veh), VPS36 (ProbeSet 11739960_a_at) / Fold change (ACY-1035/veh), VPS36 (ProbeSet 11739960_a_at) / RFU SYPL1 (11715823_x_at) / Fold change /veh SYPL1 (11715823_x_at) / RFU IGFBP7 (11715501_s_at) / Fold change /veh IGFBP7 (11715501_s_at) / RFU REEP3 (11722064_at) / Fold change /veh REEP3 (11722064_at) / RFU IGLL1 (11728026_x_at) / Fold change /veh IGLL1 (11728026_x_at): dose or concentration left out as unconfirmed
# Conditions: ProbeSet 11732277_a_at; LIST D
smiles,measurement,value
Nc1ncn([C@@H]2O[C@H](CO)[C@@H](O)[C@H]2O)c(=O)n1 [azacitidine],"Fold change vs veh, FOXP1",0.59
